Laboratory results as given in patent US12479847B2 (DANA-FARBER CANCER INSTITUTE, INC., priority 2019, dated 2025).

How the values were obtained:
Test in all cases: KINOMEscan (ScanMAX) kinase profiling
Format in all cases: binding
panel of 468 kinases [1] = molecular target: T1, panel of 468 kinases (Homo sapiens, UniProt O75116); conditions: ROCK2; 1 μM; read-out: % control
T1 construct: purchased KINOMEscan (ScanMAX) service

panel of 468 kinases [2] = molecular target: T2, panel of 468 kinases (Homo sapiens, UniProt O75716); conditions: STK16; 1 μM; read-out: % control
T2 construct: purchased KINOMEscan (ScanMAX) service

panel of 468 kinases [3] = molecular target: T3, panel of 468 kinases (Homo sapiens, UniProt P31749); conditions: AKT1; 1 μM; read-out: % control
T3 construct: purchased KINOMEscan (ScanMAX) service
T3 sequence (P31749 whole entry): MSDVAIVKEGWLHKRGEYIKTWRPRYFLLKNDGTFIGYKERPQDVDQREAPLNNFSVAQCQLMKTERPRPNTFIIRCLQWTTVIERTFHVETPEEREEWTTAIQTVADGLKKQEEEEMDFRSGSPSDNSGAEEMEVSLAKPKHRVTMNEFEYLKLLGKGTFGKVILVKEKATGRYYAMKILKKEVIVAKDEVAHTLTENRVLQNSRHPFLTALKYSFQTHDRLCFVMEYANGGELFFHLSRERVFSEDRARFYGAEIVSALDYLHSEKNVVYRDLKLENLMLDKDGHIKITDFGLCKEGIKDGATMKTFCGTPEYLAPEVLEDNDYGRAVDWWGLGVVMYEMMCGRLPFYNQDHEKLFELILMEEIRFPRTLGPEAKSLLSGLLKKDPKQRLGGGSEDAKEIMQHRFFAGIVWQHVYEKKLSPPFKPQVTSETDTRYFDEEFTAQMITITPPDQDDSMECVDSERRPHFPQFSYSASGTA

panel of 468 kinases [4] = molecular target: T4, panel of 468 kinases (Homo sapiens, UniProt P42336, M1043I); conditions: PIK3CA(M1043I); 1 μM; read-out: % control
T4 construct: purchased KINOMEscan (ScanMAX) service

panel of 468 kinases [5] = molecular target: T5, panel of 468 kinases (Homo sapiens, UniProt Q00532); conditions: CDKL1; 1 μM; read-out: % control
T5 construct: purchased KINOMEscan (ScanMAX) service

panel of 468 kinases [6] = molecular target: T6, panel of 468 kinases (Homo sapiens, UniProt Q13873); conditions: BMPR2; 1 μM; read-out: % control
T6 construct: purchased KINOMEscan (ScanMAX) service
T6 sequence (Q13873 27-1038): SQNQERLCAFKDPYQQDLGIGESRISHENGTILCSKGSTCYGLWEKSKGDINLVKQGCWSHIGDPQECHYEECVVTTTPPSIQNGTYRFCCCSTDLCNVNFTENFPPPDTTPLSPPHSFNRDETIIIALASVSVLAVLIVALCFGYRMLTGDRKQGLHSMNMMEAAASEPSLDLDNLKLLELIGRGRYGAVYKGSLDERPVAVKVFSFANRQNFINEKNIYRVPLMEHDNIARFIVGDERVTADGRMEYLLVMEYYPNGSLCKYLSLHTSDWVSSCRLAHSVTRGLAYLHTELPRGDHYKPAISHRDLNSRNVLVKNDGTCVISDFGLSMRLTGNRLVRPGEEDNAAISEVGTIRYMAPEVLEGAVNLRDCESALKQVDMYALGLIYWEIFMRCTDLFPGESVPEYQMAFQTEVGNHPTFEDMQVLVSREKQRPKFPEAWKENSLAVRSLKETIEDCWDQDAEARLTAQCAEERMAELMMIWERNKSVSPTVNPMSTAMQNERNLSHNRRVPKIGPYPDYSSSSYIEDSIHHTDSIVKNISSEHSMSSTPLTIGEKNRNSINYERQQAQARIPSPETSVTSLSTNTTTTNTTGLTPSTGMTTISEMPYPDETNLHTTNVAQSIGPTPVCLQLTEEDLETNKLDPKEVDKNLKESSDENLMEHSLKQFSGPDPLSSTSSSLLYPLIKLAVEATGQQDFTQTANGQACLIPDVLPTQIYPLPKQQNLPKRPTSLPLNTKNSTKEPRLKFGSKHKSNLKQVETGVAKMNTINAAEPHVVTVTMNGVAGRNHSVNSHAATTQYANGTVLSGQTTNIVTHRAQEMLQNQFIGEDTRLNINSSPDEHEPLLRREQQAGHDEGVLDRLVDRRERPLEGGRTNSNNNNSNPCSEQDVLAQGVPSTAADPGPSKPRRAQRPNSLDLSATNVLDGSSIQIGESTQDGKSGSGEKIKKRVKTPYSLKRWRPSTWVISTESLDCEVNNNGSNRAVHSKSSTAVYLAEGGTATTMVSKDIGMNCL

panel of 468 kinases [7] = molecular target: T7, panel of 468 kinases (Homo sapiens, UniProt Q16288); conditions: TRKC; 1 μM; read-out: % control
T7 construct: purchased KINOMEscan (ScanMAX) service
T7 sequence (Q16288 32-839): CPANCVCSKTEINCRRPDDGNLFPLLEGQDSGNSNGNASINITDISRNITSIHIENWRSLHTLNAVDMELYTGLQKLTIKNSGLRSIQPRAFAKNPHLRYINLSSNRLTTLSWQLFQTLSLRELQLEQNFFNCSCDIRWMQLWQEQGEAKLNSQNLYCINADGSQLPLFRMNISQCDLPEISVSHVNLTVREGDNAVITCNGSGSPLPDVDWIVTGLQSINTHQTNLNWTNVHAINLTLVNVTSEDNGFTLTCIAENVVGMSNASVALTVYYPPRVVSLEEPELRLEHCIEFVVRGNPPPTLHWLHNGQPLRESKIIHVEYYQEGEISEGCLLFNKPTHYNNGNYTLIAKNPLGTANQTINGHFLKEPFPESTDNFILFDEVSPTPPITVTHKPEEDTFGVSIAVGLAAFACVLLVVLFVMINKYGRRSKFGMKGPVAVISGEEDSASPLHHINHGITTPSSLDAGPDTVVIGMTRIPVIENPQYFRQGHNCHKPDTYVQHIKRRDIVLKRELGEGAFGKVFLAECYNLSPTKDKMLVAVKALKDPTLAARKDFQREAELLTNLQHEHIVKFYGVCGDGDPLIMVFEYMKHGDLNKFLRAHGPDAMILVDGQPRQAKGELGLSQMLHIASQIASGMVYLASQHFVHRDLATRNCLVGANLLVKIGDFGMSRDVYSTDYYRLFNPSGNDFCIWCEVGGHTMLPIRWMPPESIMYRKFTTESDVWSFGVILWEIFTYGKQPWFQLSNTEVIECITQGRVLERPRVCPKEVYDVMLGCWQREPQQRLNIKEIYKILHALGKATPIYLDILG

panel of 468 kinases [8] = molecular target: T8, panel of 468 kinases (Homo sapiens, UniProt Q6PHR2); conditions: ULK3; 1 μM; read-out: % control
T8 construct: purchased KINOMEscan (ScanMAX) service
T8 sequence (Q6PHR2 1-472): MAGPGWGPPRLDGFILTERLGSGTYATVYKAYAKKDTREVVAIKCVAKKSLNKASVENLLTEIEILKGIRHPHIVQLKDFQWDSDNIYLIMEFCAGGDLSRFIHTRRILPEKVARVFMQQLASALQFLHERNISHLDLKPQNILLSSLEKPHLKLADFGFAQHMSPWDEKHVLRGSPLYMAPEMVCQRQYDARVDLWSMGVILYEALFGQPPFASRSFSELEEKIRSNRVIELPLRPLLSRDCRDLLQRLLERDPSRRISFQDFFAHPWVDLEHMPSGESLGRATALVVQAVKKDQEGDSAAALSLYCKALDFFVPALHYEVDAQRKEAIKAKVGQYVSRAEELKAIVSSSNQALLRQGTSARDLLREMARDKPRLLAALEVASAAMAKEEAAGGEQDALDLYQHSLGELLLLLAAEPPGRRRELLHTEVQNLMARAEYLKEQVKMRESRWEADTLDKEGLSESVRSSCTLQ

panel of 468 kinases [9] = molecular target: T9, panel of 468 kinases (Homo sapiens, UniProt Q96GD4); conditions: AURKB; 1 μM; read-out: % control
T9 construct: purchased KINOMEscan (ScanMAX) service
T9 sequence (Q96GD4 whole entry): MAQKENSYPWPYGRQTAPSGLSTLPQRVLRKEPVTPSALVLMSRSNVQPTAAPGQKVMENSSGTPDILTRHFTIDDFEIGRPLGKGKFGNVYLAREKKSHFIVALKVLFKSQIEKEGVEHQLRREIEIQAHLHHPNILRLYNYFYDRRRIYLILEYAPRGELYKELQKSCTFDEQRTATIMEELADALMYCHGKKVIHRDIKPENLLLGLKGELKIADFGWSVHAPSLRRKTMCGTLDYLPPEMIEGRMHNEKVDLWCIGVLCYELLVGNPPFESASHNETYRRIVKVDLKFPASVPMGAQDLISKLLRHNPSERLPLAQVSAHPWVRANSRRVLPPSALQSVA

panel of 468 kinases [10] = molecular target: T10, panel of 468 kinases (Homo sapiens, UniProt Q9BYP7); conditions: WNK3; 1 μM; read-out: % control
T10 construct: purchased KINOMEscan (ScanMAX) service
T10 sequence (Q9BYP7 whole entry): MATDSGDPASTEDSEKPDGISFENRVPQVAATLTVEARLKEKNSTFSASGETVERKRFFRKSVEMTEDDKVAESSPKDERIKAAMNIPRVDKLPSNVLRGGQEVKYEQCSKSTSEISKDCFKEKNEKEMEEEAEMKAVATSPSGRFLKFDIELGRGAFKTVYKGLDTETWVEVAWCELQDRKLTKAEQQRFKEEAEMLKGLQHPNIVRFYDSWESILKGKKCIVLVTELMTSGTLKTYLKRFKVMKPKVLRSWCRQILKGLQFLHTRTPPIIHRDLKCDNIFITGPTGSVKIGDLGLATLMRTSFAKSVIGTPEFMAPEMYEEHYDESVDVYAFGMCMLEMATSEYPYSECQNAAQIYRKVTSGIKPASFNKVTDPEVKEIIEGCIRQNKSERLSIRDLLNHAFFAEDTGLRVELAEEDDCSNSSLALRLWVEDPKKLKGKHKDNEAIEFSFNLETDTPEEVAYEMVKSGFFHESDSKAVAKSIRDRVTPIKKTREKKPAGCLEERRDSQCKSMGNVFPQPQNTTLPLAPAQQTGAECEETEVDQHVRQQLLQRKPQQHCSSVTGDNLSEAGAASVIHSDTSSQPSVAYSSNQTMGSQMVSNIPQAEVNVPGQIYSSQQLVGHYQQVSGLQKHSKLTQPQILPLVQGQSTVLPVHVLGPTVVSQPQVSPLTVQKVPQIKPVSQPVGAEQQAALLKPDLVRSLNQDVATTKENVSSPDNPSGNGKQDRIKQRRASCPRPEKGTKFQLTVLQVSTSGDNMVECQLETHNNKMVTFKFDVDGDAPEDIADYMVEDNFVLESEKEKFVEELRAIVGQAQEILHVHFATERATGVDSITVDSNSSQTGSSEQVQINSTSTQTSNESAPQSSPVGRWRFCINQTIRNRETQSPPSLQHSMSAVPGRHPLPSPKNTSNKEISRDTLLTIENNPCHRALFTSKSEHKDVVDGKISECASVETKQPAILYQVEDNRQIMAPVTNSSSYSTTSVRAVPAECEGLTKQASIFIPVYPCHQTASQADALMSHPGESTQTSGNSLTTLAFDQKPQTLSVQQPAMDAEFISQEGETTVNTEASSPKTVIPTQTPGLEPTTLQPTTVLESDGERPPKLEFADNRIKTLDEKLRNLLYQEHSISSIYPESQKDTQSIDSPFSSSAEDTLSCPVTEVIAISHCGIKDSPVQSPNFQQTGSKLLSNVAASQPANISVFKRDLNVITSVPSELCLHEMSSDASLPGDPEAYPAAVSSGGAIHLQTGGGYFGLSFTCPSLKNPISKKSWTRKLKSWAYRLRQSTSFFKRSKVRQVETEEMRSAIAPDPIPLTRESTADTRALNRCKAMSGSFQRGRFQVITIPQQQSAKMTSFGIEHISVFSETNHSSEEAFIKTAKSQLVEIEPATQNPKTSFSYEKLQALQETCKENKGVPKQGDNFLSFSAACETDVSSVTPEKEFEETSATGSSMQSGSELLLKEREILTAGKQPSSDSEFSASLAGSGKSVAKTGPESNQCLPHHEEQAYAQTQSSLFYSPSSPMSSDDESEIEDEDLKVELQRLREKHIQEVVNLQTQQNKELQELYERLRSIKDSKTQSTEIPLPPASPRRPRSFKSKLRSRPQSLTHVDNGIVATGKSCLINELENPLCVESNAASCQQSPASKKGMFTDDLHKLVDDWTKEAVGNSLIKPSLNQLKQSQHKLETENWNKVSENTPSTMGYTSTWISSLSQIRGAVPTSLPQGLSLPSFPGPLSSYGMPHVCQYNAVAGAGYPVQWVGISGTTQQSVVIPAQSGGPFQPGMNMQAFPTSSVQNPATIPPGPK

panel of 468 kinases [11] = molecular target: T11, panel of 468 kinases (Homo sapiens, UniProt Q9Y2K2); conditions: QSK; 1 μM; read-out: % control
T11 construct: purchased KINOMEscan (ScanMAX) service

T1 sequence (O75116 whole entry): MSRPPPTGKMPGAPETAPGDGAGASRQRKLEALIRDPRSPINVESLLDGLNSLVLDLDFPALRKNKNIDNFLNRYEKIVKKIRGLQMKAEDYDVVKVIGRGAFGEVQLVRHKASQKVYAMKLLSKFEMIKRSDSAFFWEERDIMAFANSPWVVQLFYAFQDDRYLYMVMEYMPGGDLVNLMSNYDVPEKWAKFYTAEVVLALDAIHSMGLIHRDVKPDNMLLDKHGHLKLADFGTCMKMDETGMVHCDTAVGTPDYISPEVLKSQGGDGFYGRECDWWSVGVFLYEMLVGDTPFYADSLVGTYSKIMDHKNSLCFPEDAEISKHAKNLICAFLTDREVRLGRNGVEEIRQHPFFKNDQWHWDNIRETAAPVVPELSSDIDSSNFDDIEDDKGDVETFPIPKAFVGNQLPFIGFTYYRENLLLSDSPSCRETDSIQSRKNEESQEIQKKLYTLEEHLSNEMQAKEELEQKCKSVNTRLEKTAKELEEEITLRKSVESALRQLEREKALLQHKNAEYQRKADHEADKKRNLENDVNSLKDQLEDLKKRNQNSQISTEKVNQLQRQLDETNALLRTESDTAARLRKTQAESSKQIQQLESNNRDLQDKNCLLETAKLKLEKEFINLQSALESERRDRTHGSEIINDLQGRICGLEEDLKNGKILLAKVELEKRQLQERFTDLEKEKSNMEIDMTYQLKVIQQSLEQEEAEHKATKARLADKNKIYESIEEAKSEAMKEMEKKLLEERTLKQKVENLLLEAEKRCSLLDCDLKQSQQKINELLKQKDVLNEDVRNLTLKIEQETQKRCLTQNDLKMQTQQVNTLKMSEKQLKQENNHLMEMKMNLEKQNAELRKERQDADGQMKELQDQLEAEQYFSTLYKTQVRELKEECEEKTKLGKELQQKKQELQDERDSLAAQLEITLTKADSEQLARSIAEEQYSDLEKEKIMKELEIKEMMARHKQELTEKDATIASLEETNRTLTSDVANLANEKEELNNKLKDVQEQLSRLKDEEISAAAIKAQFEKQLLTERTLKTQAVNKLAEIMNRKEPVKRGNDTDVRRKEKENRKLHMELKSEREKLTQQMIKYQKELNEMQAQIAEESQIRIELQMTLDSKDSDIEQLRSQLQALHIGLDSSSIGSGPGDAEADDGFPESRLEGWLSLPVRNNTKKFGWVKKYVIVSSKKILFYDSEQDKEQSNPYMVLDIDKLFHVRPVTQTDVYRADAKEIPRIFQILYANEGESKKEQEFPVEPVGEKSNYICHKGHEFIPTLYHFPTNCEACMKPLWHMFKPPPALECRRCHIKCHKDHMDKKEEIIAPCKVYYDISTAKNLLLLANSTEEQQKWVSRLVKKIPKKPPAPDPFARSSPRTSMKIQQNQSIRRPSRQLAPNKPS

`CNc1nc(Nc2ccc(S(=O)(=O)N3CCC(N4CCOCC4)CC3)cc2OC)nc2[nH]cc(Cl)c12` [Compound 12, 5-chloro-N2-(2-methoxy-4-((4-morpholinopiperidin-1-yl)sulfonyl)phenyl)-N4-methyl-7H-pyrrolo[2,3-d]pyrimidine-2,4-diamine] showed a remaining binding at 1 µM (panel of 468 kinases [1]) of 86%, a remaining binding at 1 µM (panel of 468 kinases [2]) of 100% and a remaining binding at 1 µM (panel of 468 kinases [3]) of 100%. It also gave a remaining binding at 1 µM (panel of 468 kinases [4]) of 98%, a remaining binding at 1 µM (panel of 468 kinases [5]) of 85% and a remaining binding at 1 µM (panel of 468 kinases [6]) of 97%. The remaining binding at 1 µM (panel of 468 kinases [7]) was 100%, the remaining binding at 1 µM (panel of 468 kinases [8]) was 65% and the remaining binding at 1 µM (panel of 468 kinases [9]) was 73%. The remaining binding at 1 µM (panel of 468 kinases [10]) was 100% and the remaining binding at 1 µM (panel of 468 kinases [11]) was 100%.

`CNc1nc(Nc2ccc(C(=O)N3CCC(N4CCOCC4)CC3)c3c2OCO3)nc2[nH]cc(Cl)c12` [Compound 75, (7-((5-chloro-4-(methylamino)-7H-pyrrolo[2,3-d]pyrimidin-2-yl)amino)benzo[d][1,3]dioxol-4-yl)(4-morpholinopiperidin-1-yl)methanone] showed a remaining binding at 1 µM (panel of 468 kinases [1]) of 35%, a remaining binding at 1 µM (panel of 468 kinases [2]) of 71% and a remaining binding at 1 µM (panel of 468 kinases [3]) of 100%. It also gave a remaining binding at 1 µM (panel of 468 kinases [4]) of 99%, a remaining binding at 1 µM (panel of 468 kinases [5]) of 95% and a remaining binding at 1 µM (panel of 468 kinases [6]) of 92%. For the same molecule, the remaining binding at 1 µM (panel of 468 kinases [7]) was 100%, the remaining binding at 1 µM (panel of 468 kinases [8]) was 7.6% and the remaining binding at 1 µM (panel of 468 kinases [9]) was 57%. For the same molecule, the remaining binding at 1 µM (panel of 468 kinases [10]) was 93% and the remaining binding at 1 µM (panel of 468 kinases [11]) was 100%.

Molecule `CNc1nc(Nc2ccc(P3(=O)CCN(C4CCOCC4)CC3)cc2OC)nc2[nH]cc(Cl)c12` [Compound 77, 4-(4-((5-chloro-4-(methylamino)-7H-pyrrolo[2,3-d]pyrimidin-2-yl)amino)-3-methoxyphenyl)-1-(tetrahydro-2H-pyran-4-yl)-1,4-azaphosphinane 4-oxide] has a remaining binding at 1 µM (panel of 468 kinases [1]) of 96%, a remaining binding at 1 µM (panel of 468 kinases [2]) of 93% and a remaining binding at 1 µM (panel of 468 kinases [3]) of 100%. The remaining binding at 1 µM (panel of 468 kinases [4]) was 96%, the remaining binding at 1 µM (panel of 468 kinases [5]) was 87% and the remaining binding at 1 µM (panel of 468 kinases [6]) was 85%. The remaining binding at 1 µM (panel of 468 kinases [7]) was 100%, the remaining binding at 1 µM (panel of 468 kinases [8]) was 65% and the remaining binding at 1 µM (panel of 468 kinases [9]) was 74%. The remaining binding at 1 µM (panel of 468 kinases [10]) was 98% and the remaining binding at 1 µM (panel of 468 kinases [11]) was 100%.
